{
  "source": "patent US6319952A",
  "about": "“Compositions and methods for reversibly increasing permeability of biomembranes” (D-Pharm Ltd., priority 1997, dated 2001)",
  "key": {"[1]": {"system": "rat brain", "assay": "Water concentration in the rat brain after intra-arterial administration (cerebral edema)", "type": "in vivo", "details": "20 μg/ml, 24 h", "procedure": "The rats were treated by intraarterial infusion of M 3/14 20 μg/ml or phosphate buffered saline as control. After 24 hours the rats were decapitated, the brain was removed and dried at 110° C. until constant weight was achieved (normally three days). The percent water was calculated by the following equation:\n% water=(wet sample weight-dry sample weight)×100/(wet sample weight)\nThis procedure is according to Karpiak and Mahadik (1984, J. Neurosci. Res. 12, 485-492)."}, "[2]": {"system": "rats", "details": "rat, in vivo"}, "[3]": {"assay": "Acute intravenous toxicity test in mice", "type": "in vivo", "details": "mouse, in vivo; intravenous administration to mice", "procedure": "(§1) An acute intravenous toxicity test was performed to study the toxicity of the branched fatty acids in mice. The study included mortality and behavioral observations during three days. The rate of mortality is represented in the Table 5. M 3/14 caused mortality at a dose of 175 mg/kg; M3/12 at a dose of 75 mg/kg and M 3/10 at a dose of 100 mg/kg. Death was observed ten minutes after i.v. injection. In sub-lethal doses no significant behavior changes were observed."}, "[4]": {"system": "mice", "assay": "Acute intravenous toxicity test in mice", "type": "in vivo", "details": "i.v.", "procedure": "as §1"}, "[5]": {"system": "bovine brain capillary endothelial cells in co-culture with astrocytes", "assay": "Paracellular permeability (inulin and sucrose clearance), in vitro coculture model of the BBB", "type": "cell-based", "description": "The alterations in barrier function on bovine brain capillary endothelial cells in co-culture were investigated. To provide an \"in vitro\" system for studying brain capillary functions, a process of coculture was used that closely mimics the \"in vivo\" situation by culturing brain capillary endothelial cells on one side of a filter and astrocytes on the other (Dehouck, et al. (1992) J. Neurochemistry 58:1790-1797). Endothelial cells form a confluent monolayer in 12 days.\nEndothelial cells are cultured in the upper compartment on the filter and astrocytes in the lower compartment on the plastic of the Petri dish.\nUnder these conditions, endothelial cells retain all the endothelial markers (factor VIII--related antigen, nonthrombogenic surface, production of prostacyclin, angiotensin converting enzyme activity) and the characteristics of the blood-brain barrier (presence of tight junctions, paucity of pinocytotic vesicles, monoamine oxidase activity, γ-glutamyltranspeptidase activity).\nTwo different time points were tested, namely 1 hr and 24 hrs of incubation with DP-BFA, and five different concentrations per time point: 0.04; 0.08; 0.16; 0.24; 0.32 mg/ml corresponding to 0.125; 0.25; 0.5; 0.75; 1×10^-3 M.\n(§2) DP-BFA is stored in a hermetically sealed dark vial filled with Argon at 5° C. for up to 3 months. The drug quantity was taken out the vial cap with a Teflon spatula. The compound was dissolved in sodium carbonate-sodium bicarbonate buffered saline solution adjusted to pH 8.8-9 at 37° C. A stock solution (12.8 mg/ml) was prepared and kept at 37° C. for 15 minutes. The solution was protected from light by covering it with aluminium foil. […] The desired concentration of DP-BFA was obtained by diluting the stock solution with the buffer. The solutions were filtered through a […] filter. The DP-BFA solutions were kept at 37° C. in vials protected from light, for no more than 6 hours.\nStock solution of DP-BFA was added directly to the coculture medium (upper compartment) in order to obtain a dilution of 1:40.\n(§3) Permeability studies were carried out on the monolayer of endothelial cells, using two paracellular tracers: inulin-^3 H and sucrose-^14C.\nTo obtain a concentration-dependent transport parameter, the clearance principle was used. For each time, the increment in cleared volume between successive sampling events was calculated by dividing the amount of transported solute by the donor chamber concentration. The total volume cleared at each point was calculated by summing the incremental cleared volumes up to the given time point: [formula]\nwhere [C]L is the initial luminal tracer concentration, [C]A the abluminal tracer concentration, and VA the volume of the abluminal chamber. During the 45-mim experiment, the clearance volume increased linearly with time. The average volume cleared was plotted versus time, and the slope was estimated by linear regression analysis to give the mean and the SE to the estimate. The slope of the clearance curves for the coculture was denoted PSt, where PS is the permeability x surface area product (in microliters per minute). The slope of the clearance curve for the control filter was denoted PSf.\nThe PS value for the endothelial monolayer (PSe) was calculated from [formula]\nThe PSe values were divided by the surface area of the Millicell-PC (4.2 cm^2) to generate the endothelial permeability coefficient (Pe, in centimeters per minute).\nIn that case, the results are presented as clearance (μl) in function of time (min) and clearance at 45 minutes for each condition."}, "[6]": {"system": "bovine brain capillary endothelial cells in co-culture with astrocytes", "assay": "Determination of lactate dehydrogenase (LDH) in the medium of endothelial cells in coculture", "type": "cell-based", "procedure": "In the same experiments, lactate dehydrogenase was assayed in the medium in order to check the toxicity. This cytoplasmic enzyme is not able to cross the cellular membrane except if the membrane integrity is destroyed. An increase in the release of Lactate Dehydrogenase (LDH) indicates a breakdown of the cellular membrane, leading to a cellular death. In other words, the LDH determination in the medium allows an assessment of cell viability. […]"}, "[7]": {"system": "bovine brain capillary endothelial cells in co-culture with astrocytes", "assay": "Reversibility kinetic of DP-BFA effect on the paracellular permeability of the BBB in vitro", "type": "cell-based", "procedure": "Endothelial cells are cocultured 12 days, and on the twelfth day DP-BFA was added to the cultures for one hour. The cultures were then washed to remove the test material and cultured for a further period of 3, 6 or 18 hours without DP-BFA.\nas §3"}, "[8]": {"assay": "Stability and solution appearance of DP-BFA", "type": "physicochemical", "procedure": "as §2"}, "[9]": {"details": "0.08 mg/ml, 24 hours incubation"}, "[10]": {"details": "0.16 mg/ml 1 hr, then 3 hrs fresh medium"}, "[11]": {"details": "0.16 mg/ml 1 hr, then 6 hrs fresh medium"}, "[12]": {"details": "0.16 mg/ml 1 hr, then 18 hrs fresh medium"}},
  "note": "“Also recorded” adds a separate entry of the source.",
  "data": [
    {"smiles": "CCCCCCCCCCCCCCC(CCC)C(=O)O", "note": "(centres unmarked) [M 3/14, 2-propylhexadecanoic acid]", "values": [
      {"measurement": "cerebral edema", "setting": "[1]", "result": "no cerebral edema effect"},
      {"measurement": "water content of brain, treated vs non treated rats", "setting": "[1]", "result": "no significant difference"},
      {"measurement": "Brain weight", "setting": "[1]; intra-arterial", "result": 1.494, "unit": "g"},
      {"measurement": "Brain weight after drying", "setting": "[1]; intra-arterial", "result": 0.311, "unit": "g"},
      {"measurement": "Water", "setting": "[1]; intra-arterial", "result": 79.19, "unit": "%"},
      {"measurement": "brain edema or general edema", "setting": "[2]", "result": "no brain edema or general edema was observed"},
      {"measurement": "change of behavior", "setting": "[2]", "result": "No change of behavior was observed"},
      {"measurement": "LD50 at 72 h", "setting": "[3]", "result": "150 to 175", "unit": "mg/kg"},
      {"measurement": "Mortality", "setting": "[4]; 50 mg/kg, 5 mg/ml", "result": "0/3"},
      {"measurement": "Mortality", "setting": "[4]; 100 mg/kg, 5 mg/ml", "result": "0/3"},
      {"measurement": "Mortality", "setting": "[4]; 150 mg/kg, 10 mg/ml", "result": "0/3"},
      {"measurement": "Mortality", "setting": "[4]; 175 mg/kg, 10 mg/ml", "result": "3/3"},
      {"measurement": "dose causing mortality", "setting": "[4]; mice, three days", "result": 175, "unit": "mg/kg"},
      {"measurement": "increase in permeability of the monolayer for inulin (clearance at 45 minutes)", "setting": "[5]; [9]", "result": 179, "unit": "%"},
      {"measurement": "increase in permeability of the monolayer for sucrose (clearance at 45 minutes)", "setting": "[5]; [9]", "result": 199, "unit": "%"},
      {"measurement": "paracellular breakdown (opening of the tight junctions)", "setting": "[5]; 0.08 mg/ml, 24 hrs", "result": "paracellular breakdown (opening of the tight junctions)"},
      {"measurement": "increase in permeability of the monolayer for inulin (clearance at 45 minutes)", "setting": "[5]; 0.16 mg/ml, 1 hour incubation", "result": 636, "unit": "%"},
      {"measurement": "increase in permeability of the monolayer for sucrose (clearance at 45 minutes)", "setting": "[5]; 0.16 mg/ml, 1 hour incubation", "result": 679, "unit": "%"},
      {"measurement": "paracellular breakdown (opening of the tight junctions)", "setting": "[5]; 0.16 mg/ml, 1 hr", "result": "paracellular breakdown (opening of the tight junctions)"},
      {"measurement": "LDH release", "setting": "[6]; 0.16 mg/ml, 24 hrs incubation", "result": "significant increase in LDH release"},
      {"measurement": "cytotoxic effect", "setting": "[6]; 0.16 mg/ml, 24 hrs incubation", "result": "cytotoxic effect"},
      {"measurement": "LDH release", "setting": "[6]; 1 hr incubation, paracellular study", "result": "no significant increase in LDH release"},
      {"measurement": "LDH release", "setting": "[6]; 1 hr incubation, transcellular study", "result": "No increase in release of LDH"},
      {"measurement": "cytotoxic effect", "setting": "[6]; 1 hr incubation, listed as DP-BFA", "result": "No cytotoxic effect; also recorded: not associated with cytotoxic effects"},
      {"measurement": "cytotoxic effect", "setting": "[6]; 24 hrs reversibility study", "result": "No cytotoxic effect"},
      {"measurement": "LDH release", "setting": "[6]; after 1 hr and after 24 hrs reversibility study", "result": "No increase in release of LDH"},
      {"measurement": "LDH release", "setting": "[6]; reversibility kinetic study", "result": "No increase in release of LDH"},
      {"measurement": "cytotoxic effect", "setting": "[6]; reversibility kinetic study", "result": "No cytotoxic effect"},
      {"measurement": "decrease in paracellular permeability for inulin (clearance at 45 minutes)", "setting": "[7]; [10]", "result": 58, "unit": "%"},
      {"measurement": "decrease in paracellular permeability for sucrose (clearance at 45 minutes)", "setting": "[7]; [10]", "result": 56, "unit": "%"},
      {"measurement": "decrease in paracellular permeability for inulin (clearance at 45 minutes)", "setting": "[7]; [11]", "result": 58, "unit": "%"},
      {"measurement": "decrease in paracellular permeability for sucrose (clearance at 45 minutes)", "setting": "[7]; [11]", "result": 57, "unit": "%"},
      {"measurement": "decrease in paracellular permeability for inulin (clearance at 45 minutes)", "setting": "[7]; [12]", "result": 76, "unit": "%"},
      {"measurement": "decrease in paracellular permeability for sucrose (clearance at 45 minutes)", "setting": "[7]; [12]", "result": 72, "unit": "%"},
      {"measurement": "reversibility of DP-BFA effect", "setting": "[7]; 0.16 mg/ml 1 hr, after 3, 6 and 18 hrs", "result": "incomplete reversibility"},
      {"measurement": "paracellular transport after removal", "setting": "[7]; after 3 hours, preliminary kinetic study", "result": "a decrease in the paracellular transport could be observed"},
      {"measurement": "appearance of stock solution", "setting": "[8]; 12.8 mg/ml, carbonate-bicarbonate buffered saline, pH 8.8-9, 37° C.", "result": "completely transparent"},
      {"measurement": "stability (sensitivity to light, CO2)", "setting": "[8]; white powder, sodium salt", "result": "sensitive to light and atmospheric CO2"}
    ]}
  ]
}
